Measured values: patent US8334260B2, “sFRP and peptide motifs that interact with sFRP and methods of their use” (The United States of America as represented by the …, priority 2001, dated 2012)
“Also recorded” adds a separate entry of the source. Where no end group is shown, it is not given here.

Key:
sFRP-1 [1] = assay: Competition ELISA: soluble peptides against peptide/AP chimera binding to sFRP-1; design: species or system human; details: for inhibition of A-D9/AP chimera binding to sFRP-1: soluble peptide; for inhibition of A-C2/alkaline phosphatase fusion protein binding to sFRP-1: soluble peptide preincubated 30 min with chimera
Procedure: (§1) ELISA experiments were generally performed as previously described (Uren et al., J. Biol. Chem. 275:4374-4382, 2000), with modifications depending on the sFRP binding partner to be tested. Typically, wells were coated with 0.5 or 1 μg of sFRP-1, blocked with BSA (0.2%, 1%, or 4%) and then incubated with putative binding partner overnight at room temperature. When investigating the binding of peptide/AP chimeras, after aspiration of bacterial broths, wells were washed and incubated with p-nitrophenolphosphate (pNPP). Color development was determined at 405 nm with an ELISA reader. For competition experiments, soluble peptides were preincubated with peptide/AP chimeras in bacterial broth for 30 min at room temperature prior to transfer into ELISA wells coated with sFRP-1 or BSA. When testing RANKL binding to sFRP-1, serial dilutions of soluble RANKL were assayed in replicate. Following overnight incubation at room temperature, RANKL solutions were aspirated and bound RANKL was detected by sequential incubations with primary antibody to RANKL, secondary antibody coupled with AP and pNPP. Similar experimental designs were employed when other TNFα family members were examined for binding to sFRPs, and when sFRP-1 derivatives or sFRP-2 were the binding targets for RANKL.

RAW264.7 cells [2] = assay: RANKL-induced osteoclast formation in RAW264.7 cells; format: cell-based; details: RANKL 50 ng/mL, T cells added; 5, 1 and 0.5 μg/mL
Procedure: (§2) In some instances, experiments were performed either with adult mouse spleen cells or with RAW264.7 cells treated with M-CSF and RANKL as described in Quinn et al., Endocrinology 139:4424-4427, 1998. Where indicated, these assays were conducted in the presence or absence of splenic T cells. T cell fractions were prepared as described in Horwood et al., Journal of Clinical Investigation 101:595-603, 1998.
(§3) The effect of bacterially expressed CRD was assessed in three different cell culture models of osteoclast formation. These were: (1) bone marrow cells+RANKL+M-CSF, (2) the macrophage/monocyte cell line RAW264.7+RANKL, and (3) RAW264.7+TNFα+TGFβ (Horwood et al., Journal of Immunology 166:4915-4921, 2001; Quinn et al., Journal of Bone and Mineral Research. 16, 1787-1794, 2001).

adult mouse spleen cells = assay: RANKL and M-CSF induced osteoclast formation from adult mouse spleen cells; format: cell-based
Procedure: as §2

[3] = test system: co-cultures of primary osteoblasts and adult spleen cells; assay: Osteoclastogenesis co-culture of primary osteoblasts and adult spleen cells (TRAP+ cells); format: cell-based, mouse; details: for effect on TRAP+ multinucleated cells (osteoclast formation): 5 μg/mL with optimal doses of vitamin D3 (10^-8 M) and PGE2 (10^-7 M)
Procedure: Osteoblastic cells were prepared from the calvaria of newborn mice by digestion with 0.1% collagenase (Worthington Biochemical Co., Freefold, […]) and 0.2% dispase (Godo Shusei, Tokyo, Japan). […] Exp. Med. 182: 1461-1468, 1995). Osteoblastic cells were co-cultured with bone marrow or spleen cells as described previously (Udagawa et al., J. Exp. Med. 182: 1461-1468, 1995). In short, primary osteoblastic cells (2×10^4/well) and nucleated spleen cells (1×10^6/well) or marrow cells (5×10^5/well) were co-cultured in 48-well plates (Corning Glass Inc., Corning, N.Y.) with 0.4 mL of α-MEM (GIBCO/BRL, Grand Island, N.Y.) containing 10% fetal bovine serum (Cytosystems, Castle Hill, NSW, Australia) in the presence of test chemicals. Cultures were incubated in quadruplicate and cells were replenished on day 3 with fresh medium. Osteoclast formation was evaluated after culturing for 6-7 days. Adherent cells were fixed and stained for tartrate-resistant acid phosphatase (TRAP), and the number of TRAP-positive osteoclasts was scored as described (Udagawa et al., J. Exp. Med. 182: 1461-1468, 1995). For TRAP staining, adherent cells were fixed with 4% formaldehyde in PBS for 3 minutes. After treatment with ethanol-acetone (50/50, vol/vol) for 1 minute, the well surface was air dried and incubated for 10 minutes at room temperature in an acetate buffer (0.1 M sodium acetate, pH 5.0) containing 0.01% naphthol AS-MX phosphate (Sigma) as a substrate and 0.03% red violet LB salt (Sigma) as a stain for the reaction product in the presence of 50 mM sodium tartrate. TRAP-positive cells appeared dark red, and those with three or more nuclei were scored as multinucleated and considered as osteoclasts. Validation of osteoclast formation was achieved using the specific marker of calcitonin receptor (CTR) expression and bone resorption. CTR expression was determined either by autoradiography with ^125I-salmon calcitonin or by immunohistochemical localization using an array of antibodies we have developed as described by Quinn et al., Bone 25:1-8, 1999.

sFRP-1 [4] = assay: ELISA of peptide/alkaline phosphatase fusion proteins binding to sFRP-1; design: species or system human; details: bacterial broths, sFRP-1-coated versus BSA-coated wells, pNPP at 405 nm
Procedure: Synthetic oligonucleotides encoding peptides of interest were ligated into the bacterial alkaline phosphatase fusion vector, pMY101, which had been digested with Sal I and Xho I (Yamabhai and Kay, Anal Biochem. 247:143-151, 1997). All recombinants were confirmed by DNA sequence analysis. Bacteria (E. coli, strain DH5αF′) transformed with the peptide/AP constructs were grown in Luria broth containing ampicillin (50 μg/mL) to an optical density of 0.5 (at 600 nm), treated with 1 mM isopropyl-β-D-thiogalactopyranoside and then incubated overnight at 37° C. Conditioned medium containing peptide/AP chimera was recovered by centrifugation at 7000 g for 15 minutes. Chimeric proteins in conditioned medium were stable when stored for a few weeks at 4° C. or for several months when stored at −80° C.
ELISA experiments were generally performed as previously described (Uren et al., J. Biol. Chem. 275:4374-4382, 2000), with modifications depending on the sFRP binding partner to be tested. Typically, wells were coated with 0.5 or 1 μg of sFRP-1, blocked with BSA (0.2%, 1%, or 4%) and then incubated with putative binding partner overnight at room temperature. When investigating the binding of peptide/AP chimeras, after aspiration of bacterial broths, wells were washed and incubated with p-nitrophenolphosphate (pNPP). Color development was determined at 405 nm with an ELISA reader. […] Following overnight incubation at room temperature, RANKL solutions were aspirated and bound RANKL was detected by sequential incubations with primary antibody to RANKL, secondary antibody coupled with AP and pNPP. […]
A set of peptide-alkaline phosphatase fusion proteins containing the peptide motifs (SEQ ID NOS: 14, 11, and 27) were generated. […] This qualitative difference between A-C2 (SEQ ID NO: 14), A-E4 (SEQ ID NO: 1), and B-B9 (SEQ ID NO: 27) derivatives was consistent with a quantitative difference noted during the ELISA screening of the respective phage. […]

[5] = test system: AC2/alkaline phosphatase chimera; assay: ELISA of sFRP-1 deletion mutants binding to AC2/alkaline phosphatase chimera; details: sFRP-1 deletion mutants coated on ELISA wells
Procedure: as §1, with “When testing RANKL binding to sFRP-1, serial dilutions of soluble RANKL were assayed in replicate.” left out, “Similar experimental designs were employed when other TNFα family members were examined for binding to sFRPs, and when sFRP-1 derivatives or sFRP-2 were the binding targets for RANKL.” left out
ELISA experiments were performed essentially as described above with a series of sFRP-1 deletion mutants (in Uren et al., J. Biol. Chem., 275: 4374-4382, 2000) to determine what region(s) of the protein were required for binding to the AC2/alkaline phosphatase chimera. […] Little binding was detected with derivatives that contained the CRD alone or the C-terminal region alone.

RAW264.7 cells [6] = assay: RANKL-independent (TNFα-dependent) osteoclast formation in RAW264.7+TNFα+TGFβ; format: cell-based; details: present during the first three days of culture
Procedure: The effect of sFRP-1 was assessed upon a RANKL-independent method of osteoclast formation using the monocyte/macrophage cell line RAW264.7 (Quinn et al., Journal of Bone and Mineral Research. 16, 1787-1794, 2001) and was compared with that of osteoprotegerin (FIG. 14).
as §3

RANKL = biological target: T1, RANKL (Homo sapiens, UniProt O14788); assay: ELISA of soluble RANKL binding to wells coated with sFRP-1, sFRP-1 derivatives or sFRP-2; details: ELISA, coated wells versus BSA
T1 construct: For ELISA assays, recombinant soluble RANKL and TRAIL, and antibodies directed against these proteins were obtained from PeproTech; purchased PeproTech (Rocky Hill, N.J.)
T1 sequence (O14788 140-317): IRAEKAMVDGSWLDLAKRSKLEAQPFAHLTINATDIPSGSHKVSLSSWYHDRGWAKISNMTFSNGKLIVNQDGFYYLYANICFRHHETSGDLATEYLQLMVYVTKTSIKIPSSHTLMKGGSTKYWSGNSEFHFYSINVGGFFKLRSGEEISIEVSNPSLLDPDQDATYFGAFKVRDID
Procedure: as §1
The possibility that sFRP-1 (SEQ ID NO: 3) and RANKL interact directly with each other was tested using an ELISA assay. […] RANKL was then incubated in these wells and in adjacent wells that had only been treated with BSA.

QGTLVDGRWLQL [A-C2]
inhibition of A-D9/AP chimera binding to sFRP-1 (sFRP-1 [1]): could inhibit binding | inhibition of A-C2/alkaline phosphatase fusion protein binding to sFRP-1 (sFRP-1 [1]): dose-dependent inhibition | stimulation of TRAP+ multinucleated cell differentiation (RAW264.7 cells [2]): dose-dependent stimulation | effect on osteoclast formation, T cells removed (adult mouse spleen cells; T cells removed from adult spleen cells with antibody-coupled magnetic beads): no additional response | effect on osteoclast production (adult mouse spleen cells; peptide present during days 0-3, RANKL 50 ng/mL and M-CSF 25 ng/mL): caused an increase in osteoclast production | effect on TRAP+ multinucleated cells (osteoclast formation) [3]: ten-fold increase; also recorded: markedly stimulated | time window of the effect on osteoclast formation ([3]; peptide present for different periods of the culture): only had an effect on osteoclast formation when it was present during day 0 to day 3

A-D9/AP chimera: A-D9 peptide fused to alkaline phosphatase (WECAMYDGRCLT; cysteine pairing not given here; also: fused to alkaline phosphatase)
specific binding of peptide/alkaline phosphatase fusion protein to sFRP-1 (sFRP-1 [4]): bound specifically

Alkaline phosphatase: alkaline phosphatase itself, control for the fusion proteins [reference compound]
specific binding of peptide/alkaline phosphatase fusion protein to sFRP-1 (sFRP-1 [4]): no preferential binding

A-C2 (SEQ ID NO: 14)/alkaline phosphatase fusion protein: A-C2 peptide fused to bacterial alkaline phosphatase (QGTLVDGRWLQL; also: fused to bacterial alkaline phosphatase)
specific binding of peptide/alkaline phosphatase fusion protein to sFRP-1 (sFRP-1 [4]): strong, highly specific binding

WECAMYDGRCLT (Peptide that binds sFRP) [A-D9]
inhibition of A-D9/AP chimera binding to sFRP-1 (sFRP-1 [1]): blocked in a dose-dependent manner | inhibition of A-C2/alkaline phosphatase fusion protein binding to sFRP-1 (sFRP-1 [1]): inhibited binding

B1: Δ3 derivative: sFRP-1 deletion mutant containing all of the Fz CRD and a portion of the C-terminal region (protein)
chain: MGIGRTEGGRRGAALGVLLALGGASGRGLGSEYDYVSFQSDIGPYQSGRFYTKPPQCVDIPADLRLCHNVGYKKMVLPNLLEHETMAEVKQQASSWVPLLNKNCHAGTQVFLCSLFAPVCLDRPIYPCRWLCEAVRDSCEPVMQFFGFYWPEMLKCDKFPEGDVCIAMTPPNATEASKPQGTTVCPPCDNELKSEAIIEHLCASEFALRMKIKEVKKENGDKKIVPKKKKPLKLGPIKKKDLQAYVEQKLISEEDLNSAVDHHHHHH
modifications: Fusion protein
notes: sFRP-1 deletion mutant containing all of the Fz CRD and a portion of the C-terminal region
binding to the AC2/alkaline phosphatase chimera [5]: Optimal binding

B2: OPG: osteoprotegerin, soluble TNF receptor family factor that binds RANKL (protein, UniProt O00300 22-401, looked up)
Tumor necrosis factor …: ETFPPKYLHYDEETSHQLLCDKCPPGTYLKQHCTAKWKTVCAPCPDHYYTDSWHTSDECLYCSPVCKELQYVKQECNRTHNRVCECKEGRYLEIEFCLKHRSCPPGFGVVQAGTPERNTVCKRCPDGFFSNETSSKAPCRKHTNCSVFGLLLTQKGNATHDNICSGNSESTQKCGIDVTLCEEAFFRFAVPTKFTPNWLSVLVDNLPGTKVNAESVERIKRQHSSQEQTFQLLKLWKHQNKDQDIVKKIIQDIDLCENSVQRHIGHANLTFEQLRSLMESLPGKKVGAEDIEKTIKACKPSDQILKLLSLWRIKNGDQDTLKGLMHALKHSKTYHFPKTVTQSLKKTIRFLHSFTMYKLYQKLFLEMIGNQVQSVKISCL
effect on TNFα-dependent osteoclast formation (RAW264.7 cells [6]): no effect

B3: Al derivative: sFRP-1 deletion mutant that consists essentially of the Fz CRD (protein)
chain: MGIGRTEGGRRGAALGVLLALGGASGRGLGSEYDYVSFQSDIGPYQSGRFYTKPPQCVDIPADLRLCHNVGYKKMVLPNLLEHETMAEVKQQASSWVPLLNKNCHAGTQVFLCSLFAPVCLDRPIYPCRWLCEAVRDSCEPVMQFFGFYWPEMLKCDKFPEGDVCIAMTPQAYVEQKLISEEDLNSAVDHHHHHH
modifications: Fusion protein
notes: sFRP-1 deletion mutant that consists essentially of the Fz CRD
binding to RANKL (RANKL): retained good binding

B4: NHD: netrin homology domain of sFRP-1 (protein, listed as Homo sapiens)
chain: CIAMTPPNATEASKPQGTTVCPPCDNELKSEAIIEHLCASEFALRMKIKEVKKENGDKKIVPKKKKPLKLGPIKKKDLKKLVLYLKNGADCPCHQLDNLSHHFLIMGRKVKSQYLLTAIHKWDKKNKEFKNFMKKMKNHEC
effect on TRAP+ multinucleated cells (osteoclast formation) [3]: not further enhanced
